The target in series [1] is T1, Cytochrome P450 2J2 (Homo sapiens, UniProt P51589).
T1 sequence (P51589 whole entry): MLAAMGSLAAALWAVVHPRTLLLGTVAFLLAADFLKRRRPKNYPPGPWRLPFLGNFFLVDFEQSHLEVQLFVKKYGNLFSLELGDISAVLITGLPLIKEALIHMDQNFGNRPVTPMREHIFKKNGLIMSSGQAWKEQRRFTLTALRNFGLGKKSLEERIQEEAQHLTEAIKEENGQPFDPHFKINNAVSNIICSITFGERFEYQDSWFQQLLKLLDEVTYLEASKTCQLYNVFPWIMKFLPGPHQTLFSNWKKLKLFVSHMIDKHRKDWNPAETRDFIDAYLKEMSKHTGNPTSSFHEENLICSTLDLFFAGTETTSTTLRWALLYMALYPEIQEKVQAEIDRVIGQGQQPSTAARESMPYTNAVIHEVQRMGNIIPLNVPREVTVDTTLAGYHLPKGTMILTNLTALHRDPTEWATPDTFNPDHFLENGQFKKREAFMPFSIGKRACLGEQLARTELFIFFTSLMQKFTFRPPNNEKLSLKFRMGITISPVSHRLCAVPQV
Nature of the series: Activity of human recombinant CYP2J2 assessed as enzyme-mediated 2-hydroxyethyl (1R,3aR,4aR,6R,8aR,9S,9aS)-9-((E)-2-(5-(3-fluorophenyl)pyridin-2-yl)vinyl)-1-methyl-3-oxododecahydronaphtho[2,3-c]furan-6-ylcarbamate formation at 25 uM after 120 mins by LC-MS/MS analysis in presence of NADPH. Format: ADME. The conditions noted are these: 2 h.

For series [2], the target named is T2, Cytochrome P450 2D6 (Homo sapiens, UniProt P10635). Nature of the series: Activity of human recombinant CYP2D6 assessed as enzyme-mediated drug metabolism at 10 uM after 120 mins by LC-MS/MS analysis. The series is classed as ADME. The conditions noted are these: 2 h.
T2 sequence (P10635 whole entry): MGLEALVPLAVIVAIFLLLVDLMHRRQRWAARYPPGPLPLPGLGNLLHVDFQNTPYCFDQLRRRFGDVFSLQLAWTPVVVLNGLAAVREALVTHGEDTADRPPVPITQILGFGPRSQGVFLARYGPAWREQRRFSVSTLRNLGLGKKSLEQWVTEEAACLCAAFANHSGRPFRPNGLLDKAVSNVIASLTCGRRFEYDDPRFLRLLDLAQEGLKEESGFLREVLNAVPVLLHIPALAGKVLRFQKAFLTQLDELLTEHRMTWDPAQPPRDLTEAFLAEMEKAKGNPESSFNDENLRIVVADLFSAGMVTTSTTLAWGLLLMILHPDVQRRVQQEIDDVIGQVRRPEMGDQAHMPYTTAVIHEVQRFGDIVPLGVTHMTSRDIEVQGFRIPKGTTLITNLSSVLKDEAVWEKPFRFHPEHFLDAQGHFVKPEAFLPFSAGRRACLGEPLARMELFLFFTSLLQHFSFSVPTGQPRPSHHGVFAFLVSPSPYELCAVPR
A further series has as its target Cytochrome P450 2C9 (Homo sapiens, UniProt P11712). Put plainly: Activity of human recombinant CYP2C9 assessed as enzyme-mediated drug metabolism at 10 uM after 120 mins by LC-MS/MS analysis. Format: ADME. The conditions noted are these: 2 h.
For the next series, the target named is Cytochrome P450 3A4 (Homo sapiens, UniProt P08684). Put plainly: Activity of human recombinant CYP3A4 assessed as enzyme-mediated (3R,3aS,4S,4aR,7R,8aR,9aR)-7-amino-4-((E)-2-(5-(3-fluorophenyl)pyridin-2-yl)vinyl)-3-methyldecahydronaphtho[2,3-c]furan-1(3H)-one formation assessed per nmol of enzyme at 10 uM after 120 mins by LC-MS/MS analysis in presence of NADPH. The series is classed as ADME. The conditions noted are these: 2 h.
Sequence of Cytochrome P450 3A4 (P08684 whole entry): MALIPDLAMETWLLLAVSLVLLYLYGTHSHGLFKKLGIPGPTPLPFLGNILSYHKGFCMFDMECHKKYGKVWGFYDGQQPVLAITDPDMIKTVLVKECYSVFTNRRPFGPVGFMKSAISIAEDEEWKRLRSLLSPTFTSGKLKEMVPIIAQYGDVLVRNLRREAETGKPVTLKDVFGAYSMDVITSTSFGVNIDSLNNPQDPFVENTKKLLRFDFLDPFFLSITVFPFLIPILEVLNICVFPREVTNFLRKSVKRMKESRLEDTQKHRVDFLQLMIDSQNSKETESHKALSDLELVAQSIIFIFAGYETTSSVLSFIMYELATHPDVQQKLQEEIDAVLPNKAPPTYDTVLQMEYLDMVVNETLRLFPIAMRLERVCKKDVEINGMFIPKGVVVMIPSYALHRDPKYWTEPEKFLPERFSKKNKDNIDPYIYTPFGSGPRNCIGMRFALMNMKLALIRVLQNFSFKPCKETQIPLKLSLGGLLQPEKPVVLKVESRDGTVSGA

The target of another series is T3, Cytochrome P450 2B6 (Homo sapiens, UniProt P20813).
T3 sequence (P20813 whole entry): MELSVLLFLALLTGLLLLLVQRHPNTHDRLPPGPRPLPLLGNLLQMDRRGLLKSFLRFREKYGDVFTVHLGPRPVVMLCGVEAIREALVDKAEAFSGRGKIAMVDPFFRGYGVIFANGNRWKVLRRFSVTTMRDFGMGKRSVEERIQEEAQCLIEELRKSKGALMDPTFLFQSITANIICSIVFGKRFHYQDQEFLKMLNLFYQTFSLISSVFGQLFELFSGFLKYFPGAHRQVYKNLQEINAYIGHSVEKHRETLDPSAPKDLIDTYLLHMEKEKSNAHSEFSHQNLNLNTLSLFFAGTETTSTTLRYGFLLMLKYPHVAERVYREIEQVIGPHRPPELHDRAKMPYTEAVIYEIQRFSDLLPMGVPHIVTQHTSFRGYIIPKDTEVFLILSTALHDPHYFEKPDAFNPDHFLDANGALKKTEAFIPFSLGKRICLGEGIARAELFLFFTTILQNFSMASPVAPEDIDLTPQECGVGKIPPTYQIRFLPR
Put plainly: Activity of human recombinant CYP2B6 assessed as enzyme-mediated 2-hydroxyethyl (1R,3aR,4aR,6R,8aR,9S,9aS)-9-((E)-2-(5-(3-fluorophenyl)pyridin-2-yl)vinyl)-1-methyl-3-oxododecahydronaphtho[2,3-c]furan-6-ylcarbamate formation at 25 uM after 120 mins by LC-MS/MS analysis in presence of NADPH. Format: ADME. The conditions noted are these: 2 h.

In a further series the target is Cytochrome P450 4A11 (Homo sapiens, UniProt Q02928). Put plainly: Activity of human recombinant CYP4A11 assessed as enzyme-mediated drug metabolism treated with 25 uM vorapaxar after 120 mins by LC-MS/MS analysis in presence of NADPH. Format: ADME. The conditions noted are these: 2 h.
Sequence of Cytochrome P450 4A11 (Q02928 whole entry): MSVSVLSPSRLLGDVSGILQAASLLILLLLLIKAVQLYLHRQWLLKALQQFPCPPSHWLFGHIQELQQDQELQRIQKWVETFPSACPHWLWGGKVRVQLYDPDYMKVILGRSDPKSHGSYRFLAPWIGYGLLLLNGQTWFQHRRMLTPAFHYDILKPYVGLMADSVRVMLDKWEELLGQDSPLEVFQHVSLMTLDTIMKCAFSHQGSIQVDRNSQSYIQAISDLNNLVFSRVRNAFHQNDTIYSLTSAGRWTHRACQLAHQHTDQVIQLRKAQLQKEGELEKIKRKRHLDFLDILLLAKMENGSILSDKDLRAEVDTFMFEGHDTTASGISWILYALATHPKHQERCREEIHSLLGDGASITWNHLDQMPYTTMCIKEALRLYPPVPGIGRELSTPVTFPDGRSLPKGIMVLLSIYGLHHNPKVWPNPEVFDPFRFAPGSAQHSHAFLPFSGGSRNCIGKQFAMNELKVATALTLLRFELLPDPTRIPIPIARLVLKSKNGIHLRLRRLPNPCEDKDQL
In series [3] the target is T1, Cytochrome P450 2J2. Nature of the series: Drug metabolism in human liver microsomes assessed as CYP2J2-mediated (3R,3aS,4S,4aR,7R,8aR,9aR)-7-amino-4-((E)-2-(5-(3-fluorophenyl)pyridin-2-yl)vinyl)-3-methyldecahydronaphtho[2,3-c]furan-1(3H)-one formation at 25 uM after 120 mins by LC-MS/MS analysis. Format: ADME. The conditions noted are these: 2 h. In general terms: Liver microsomes are vesicles of endoplasmic reticulum, rich in cytochrome P450 enzymes.

For series [4], the target named is T2, Cytochrome P450 2D6. Nature of the series: Activity of human recombinant CYP2D6 assessed as enzyme-mediated drug metabolism treated with 25 uM vorapaxar after 120 mins by LC-MS/MS analysis in presence of NADPH. The series is classed as ADME. Conditions: 2 h.
Another series addresses Cytochrome P450 2E1 (Homo sapiens, UniProt P05181). Put plainly: Activity of human recombinant CYP2E1 assessed as enzyme-mediated drug metabolism treated with 25 uM vorapaxar after 120 mins by LC-MS/MS analysis in presence of NADPH. The series is classed as ADME. The conditions noted are these: 2 h.
Series [5] concerns Liver microsome. Put plainly: Drug metabolism in human liver microsomes assessed as (3R,3aS,4S,4aR,7R,8aR,9aR)-7-amino-4-((E)-2-(5-(3-fluorophenyl)pyridin-2-yl)vinyl)-3-methyldecahydronaphtho[2,3-c]furan-1(3H)-one formation at 10 to 25 uM after 120 mins by LC-MS/MS analysis in presence of ketoconazole. The series is classed as ADME. The conditions noted are these: 2 h.
For another series, the target named is CYP2C9 (Homo sapiens, UniProt P11712). Nature of the series: Activity of human recombinant CYP2C9 assessed as enzyme-mediated drug metabolism at 10 uM after 120 mins by LC-MS/MS analysis in presence of NADPH. The series is classed as ADME. The conditions noted are these: read-out: Compound recovery.
Sequence of CYP2C9 (P11712 whole entry): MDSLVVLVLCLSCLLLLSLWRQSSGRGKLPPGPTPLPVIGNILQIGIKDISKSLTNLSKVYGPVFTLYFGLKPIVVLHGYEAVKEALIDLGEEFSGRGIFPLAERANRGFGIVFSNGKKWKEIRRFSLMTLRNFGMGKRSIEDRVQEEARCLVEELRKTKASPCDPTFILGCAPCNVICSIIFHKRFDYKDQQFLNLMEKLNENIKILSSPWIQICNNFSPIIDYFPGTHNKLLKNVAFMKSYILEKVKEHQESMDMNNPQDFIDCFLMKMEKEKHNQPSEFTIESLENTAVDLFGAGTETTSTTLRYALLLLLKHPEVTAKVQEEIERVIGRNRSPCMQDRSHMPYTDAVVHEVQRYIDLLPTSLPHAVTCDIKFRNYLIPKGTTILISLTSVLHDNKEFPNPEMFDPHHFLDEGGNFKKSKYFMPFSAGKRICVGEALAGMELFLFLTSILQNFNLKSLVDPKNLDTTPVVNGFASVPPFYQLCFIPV
Series [6] can be described thus: Drug metabolism in human lung microsomes assessed as 2-hydroxyethyl (1R,3aR,4aR,6R,8aR,9S,9aS)-9-((E)-2-(5-(3-fluorophenyl)pyridin-2-yl)vinyl)-1-methyl-3-oxododecahydronaphtho[2,3-c]furan-6-ylcarbamate formation at 25 uM after 120 mins by LC-MS/MS analysis in presence of NADPH. The conditions noted are these: 2 h. The series is classed as ADME, microsome.
Series [7] deals with Liver microsome. Nature of the series: Drug metabolism in human liver microsomes assessed as 2-hydroxyethyl (1R,3aR,4aR,6R,8aR,9S,9aS)-9-((E)-2-(5-(3-fluorophenyl)pyridin-2-yl)vinyl)-1-methyl-3-oxododecahydronaphtho[2,3-c]furan-6-ylcarbamate formation at 25 uM after 120 mins by LC-MS/MS analysis in presence of CYP3A4-specific inhibitory monoclonal antibody. The conditions noted are these: 2 h. The series is classed as ADME.

Series [8] can be described thus: Drug metabolism in human liver S9 fraction assessed as compound remaining at 10 uM after 120 mins by LC-MS/MS analysis in presence of NADPH. Format: ADME, subcellular. Conditions: read-out: Compound recovery.

Molecules are shown by their SMILES.

Sequence of Cytochrome P450 2C9 (P11712 whole entry): as above
Sequence of Cytochrome P450 2E1 (P05181 whole entry): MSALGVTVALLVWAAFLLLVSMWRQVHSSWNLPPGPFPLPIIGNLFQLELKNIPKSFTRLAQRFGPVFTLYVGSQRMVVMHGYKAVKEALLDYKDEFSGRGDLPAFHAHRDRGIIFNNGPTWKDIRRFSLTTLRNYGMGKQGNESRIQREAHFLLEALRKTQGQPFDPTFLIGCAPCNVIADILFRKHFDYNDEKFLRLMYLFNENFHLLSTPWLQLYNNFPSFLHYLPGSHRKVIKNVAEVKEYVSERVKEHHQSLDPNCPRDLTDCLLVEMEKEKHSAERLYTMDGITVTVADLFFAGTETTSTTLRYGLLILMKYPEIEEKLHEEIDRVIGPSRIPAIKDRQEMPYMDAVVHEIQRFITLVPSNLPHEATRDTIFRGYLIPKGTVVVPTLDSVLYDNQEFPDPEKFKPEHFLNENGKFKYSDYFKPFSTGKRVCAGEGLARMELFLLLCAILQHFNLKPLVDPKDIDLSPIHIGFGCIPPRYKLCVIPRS

On to `CCOC(=O)N[C@@H]1CC[C@@H]2[C@@H](C1)C[C@H]1C(=O)O[C@H](C)[C@H]1[C@H]2/C=[14CH]/c1ccc(-c2cccc(F)c2)cn1`, for which the Drug metabolism result is “metabolite_detected” at Cytochrome P450 2J2 [1]; “metabolite_not_detected” at Cytochrome P450 2D6 [2]; “metabolite_not_detected” on Cytochrome P450 2C9; 109.8 pmol/min on Cytochrome P450 3A4; “metabolite_detected” on Cytochrome P450 2B6.
In the case of `C[C@H]1OC(=O)[C@@H]2C[C@@H]3C[C@H](NC(=O)OCCO)CC[C@H]3[C@H](/C=C/c3ccc(-c4cccc(F)c4)cn3)[C@H]12`, the Drug metabolism entry on Cytochrome P450 4A11, at Cytochrome P450 2J2 [3], at Cytochrome P450 2D6 [4] and at Cytochrome P450 2E1 was “metabolite_detected” each time.
On to `CCOC(=O)N[C@@H]1CC[C@@H]2[C@@H](C1)C[C@H]1C(=O)O[C@H](C)[C@H]1[C@H]2/C=C/c1ccc(-c2cccc(F)c2)cn1` [VORAPAXAR], for which the Drug metabolism entry in the series on Liver microsome [5] is given as “metabolite_not_detected”; in series [6] it was “metabolite_detected”; with Liver microsome [7] it was “metabolite_not_detected”. Further, the remaining at 2 h, 10 µM at CYP2C9 was found to be 98.8%; in [8] it was 95.7%.
